This is an account of results in US10668048B2, “Compounds for inhibiting bacterial growth via phosphatidylglycerol binding” (Wichita State University, priority 2016, dated 2020).

Data set [1] in a line: Carboxy-fluorescein efflux from PE/PG liposomes. The class given is biochemical. The conditions noted are these: 2.5 μM, after 90 minutes. The procedure: Liptin 3e causes membrane leakage when it binds to PG in a membrane, as evidenced by the efflux of fluorescent carboxy-fluorescein from model lipid vesicles of 80% PE/20% PG (the approximate lipid content models E. coli's plasma membrane), shown in FIG. 19A. […] Not shown is the effect of the bee AMP melittin, which forms pores in membranes at 2.5 μM concentrations. Upon addition of melittin within a few minutes of addition the efflux is 100%.
Liptins 3f-h also cause membrane leakage when they bind to PG in a membrane, as evidenced by the efflux of fluorescent carboxy-fluorescein from model lipid vesicles of 80% PE/20% PG (the lipid content models E. coli's plasma membrane), shown in FIG. 19B. The circle bottom line data set is the control without liptin. […] Y-axis: % Efflux; X-axis: Time in minutes.
This greater efflux activity may well translate to lower MICs of these two compounds relative to liptin 3e, and may well change the liptin activity from bacteriostatic to bactericidal. […]

A further data set deals with E. coli (MC4100). Nature of the data set: Bactericidal (MBC) experiment, LB plates. The class given is cell-based. The conditions noted are these: overnight culture then LB plate 16 hours. The procedure: (§1) Cultures (5 mL) starting at 0.001 OD were grown overnight at 37° C. with different concentrations of […], and then a sample of culture was added to an LB plate and then it was incubated for 16 hours at 37° C. […] All experiments were done in triplicate, including control.

In another data set the test system is S. aureus (33186). Nature of the data set: Bactericidal (MBC) experiment, LB plates. The class given is cell-based. The settings on record: 5 μM, overnight culture then LB plate 16 hours. The procedure: as §1
The subject of another data set is E. feucalis (29213). Nature of the data set: Bactericidal (MBC) experiment, LB plates. The class given is cell-based. The settings on record: overnight culture then LB plate 16 hours. The procedure:
as §1

Data set [2] in a line: FCS binding of liptin to PG at the membrane interface (liposomes, surfactant vesicles). The procedure: The porphyrin 3e was used to examine the liptin's affinity and selectivity for PG when PG was present as part of a membrane bilayer. In this example, fluorescence correlation spectroscopy (FCS) was used to measure the fraction of liptin bound to surfactant vesicles or liposomes containing a known amount of PG. This approach is fast, reliable and accurate, and is possible when the liptin is a stable fluorophore, as in the case of 3e.
FCS results are evaluated by treating the time dependent fluorescence intensity acquired from a dilute solution of the liptin using a focused laser beam as the excitation source. Temporal fluctuations in the fluorescence intensity are a result of the diffusion of the liptin through the focused laser beam. When the liptin binds to a vesicle, its apparent diffusion coefficient decreases by two orders of magnitude.
FIG. panels 9A and 9C contain examples of autocorrelation decays for liptin 3e in with liposomes (FIG. 9A) and surfactant vesicles (FIG. 9C) containing varying amounts of PG. Specifically, FIG. 9 illustrates an autocorrelation analysis of liptin 3e binding to PG-doped membranes of liposomes and positively-charged surfactant vesicles. A) Autocorrelation decays for liptin with varying percentages of PG in PE liposome. B) Binding constant values as a function of PS and PG in PE liposome. C) Autocorrelation decays for liptin with varying percentages of PG in positively-charged surfactant vesicles. D) Binding constant of liptin with varying percentages of PG in positively-charged surfactant vesicles. […] In FIGS. 9A and 9C, the markers are the experimental data and the solid lines are the fits that determine the fraction of liptin bound, f. This quantity is then used to calculate the binding constant:
[formula] where [R] is the total concentration of […], and it has been assumed that half of the PG is located on the membrane inner leaflet and thus not available for binding.

Another data set can be described thus: Water solubility. The class given is physicochemical. The conditions noted are these: TFA counterions. An excerpt:
Route 1 involves reductive amination of the uncharged glycine picket with an aldehyde. Route 2 involves amidation of the meso-phenylamines via addition of chloroacetyl chloride followed by the SN2 addition of amines to the resultant alkyl chloride (examples of alkyl, polyether, or benzyl amines are shown in Scheme 1). Route 2 is capable of furnishing a more diverse set of pickets, and modeling has shown that the use of the aryl amines shown in Scheme 1 would position their phenolic OH groups to allow for hydrogen bonding with the lipid's fatty acid ester groups. At the present time, porphyrins 3f-h have been furnished using Route 2. Route 3 involves the transformation of the meso-phenylamines into phenylisocyanates, followed by the addition of a substituted hydrazine (prepared from an aldehyde and hydrazine to form the hydrazone followed by reductive amination or with commercially available hydrazines) to furnish a semicarbazide group whose nitrogen can be charged (FIG. 6). The urea portion of the semicarbazide would provide additional strong hydrogen-bonding sites for the glycerol hydroxyl groups.

In a further data set the test system is Red blood cells (RBCs). Nature of the data set: Erythrocyte toxicity, hemoglobin release at 414 nm. The class given is cell-based. The settings on record: 2.5-5 μM, 30 minutes, 37° C. The procedure:
Toxicity of liptin 3e to eukaryotic erythrocytes was assessed by UV/Visible spectroscopy, whereby the change in absorbance at 414 nm was used to quantify the release of hemoglobin, where 100% hemolysis was measured by adding 1% Triton X-100 detergent. Red blood cells (RBCs) were suspended in a buffer of 25 mM TRIS and 1.5 mM dihydrogenphosphate anion (serum inorganic phosphate levels). To the RBCs samples was added differing concentration of 3e—2.5 μM, 5 μM, 7.5 μM, and 10 μM, as well as control containing no 3e, and after 30 minutes incubation and gentle shaking at 37° C. spectra were obtained.

For `NCC(=O)Nc1ccccc1-c1c2nc(c(-c3ccccc3NC(=O)CN)c3ccc([nH]3)c(-c3ccccc3NC(=O)CN)c3nc(c(-c4ccccc4NC(=O)CN)c4ccc1[nH]4)C=C3)C=C2.O=C(O)C(F)(F)F.O=C(O)C(F)(F)F.O=C(O)C(F)(F)F.O=C(O)C(F)(F)F` [Liptin 3e], the “dye leakage (efflux)” value in data set [1] is 5-10%. Besides, the “MBC (concentration with low or no growth on LB plates)” value in the data set with E. coli (MC4100) and against E. feucalis (29213) was “much more than four times the MIC concentrations” throughout. The bactericidal effect result in the data set on S. aureus (33186) is “strong bactericidal effects”. In data set [2] (FCS), the “PG binding affinities at the membrane interface” value is listed as ~10^4 M^−1. Besides, the Ka in data set [2] (Lipid vesicles containing 10-30% PG) is 10^4. In data set [2] (lipid vesicles of binary mixtures of PG or PS with PE), the “selectivity of binding PG vs phosphatidylserine (PS)” value is on record as “selective for PG over the PS”. In addition, in data set [2] (no PG, only anionic component sodium dodecylbenzenesulfonate (SDBS)), the “binding to surfactant vesicle without PG” value is “Negligible binding”. The same compound returned a binding constant in data set [2] (surfactant vesicle with 1% of PG and 35% SDBS) of 47000 M⁻¹. Also, the water solubility result in “Water solubility” was “quite water soluble”. Moreover, the “damage to red blood cells (hemolysis)” value in the data set on Red blood cells (RBCs) is 4.5-11%.
